# Columns and labels:
# [1] = biological target: Tyrosine-protein kinase FRK (Homo sapiens) (UniProt P42685); assay: Inhibition of human FRK at 18.6 nM by HotSpot assay relative to control
# [2] = biological target: T1, Serine/threonine-protein kinase NLK (Homo sapiens) (UniProt Q9UBE8); assay: Inhibition of human NLK at 18.6 nM by HotSpot assay relative to control
# T1 sequence (whole entry): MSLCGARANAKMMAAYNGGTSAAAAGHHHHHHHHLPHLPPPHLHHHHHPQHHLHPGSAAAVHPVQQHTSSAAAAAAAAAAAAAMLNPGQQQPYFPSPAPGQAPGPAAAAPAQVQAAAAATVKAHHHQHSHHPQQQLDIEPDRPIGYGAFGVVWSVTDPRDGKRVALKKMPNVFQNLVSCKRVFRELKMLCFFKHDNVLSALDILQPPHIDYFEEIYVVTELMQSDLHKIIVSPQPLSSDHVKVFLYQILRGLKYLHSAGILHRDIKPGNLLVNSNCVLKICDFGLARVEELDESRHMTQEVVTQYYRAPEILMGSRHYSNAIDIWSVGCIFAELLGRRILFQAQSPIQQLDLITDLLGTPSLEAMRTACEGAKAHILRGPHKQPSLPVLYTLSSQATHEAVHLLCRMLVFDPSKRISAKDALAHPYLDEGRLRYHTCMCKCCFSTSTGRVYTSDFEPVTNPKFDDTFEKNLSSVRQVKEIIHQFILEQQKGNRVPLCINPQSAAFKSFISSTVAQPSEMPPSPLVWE
# [3] = biological target: T2, Serine/threonine-protein kinase ULK2 (Homo sapiens) (UniProt Q8IYT8); assay: Inhibition of human ULK2 at 1.82 nM by HotSpot assay relative to control
# T2 sequence (whole entry): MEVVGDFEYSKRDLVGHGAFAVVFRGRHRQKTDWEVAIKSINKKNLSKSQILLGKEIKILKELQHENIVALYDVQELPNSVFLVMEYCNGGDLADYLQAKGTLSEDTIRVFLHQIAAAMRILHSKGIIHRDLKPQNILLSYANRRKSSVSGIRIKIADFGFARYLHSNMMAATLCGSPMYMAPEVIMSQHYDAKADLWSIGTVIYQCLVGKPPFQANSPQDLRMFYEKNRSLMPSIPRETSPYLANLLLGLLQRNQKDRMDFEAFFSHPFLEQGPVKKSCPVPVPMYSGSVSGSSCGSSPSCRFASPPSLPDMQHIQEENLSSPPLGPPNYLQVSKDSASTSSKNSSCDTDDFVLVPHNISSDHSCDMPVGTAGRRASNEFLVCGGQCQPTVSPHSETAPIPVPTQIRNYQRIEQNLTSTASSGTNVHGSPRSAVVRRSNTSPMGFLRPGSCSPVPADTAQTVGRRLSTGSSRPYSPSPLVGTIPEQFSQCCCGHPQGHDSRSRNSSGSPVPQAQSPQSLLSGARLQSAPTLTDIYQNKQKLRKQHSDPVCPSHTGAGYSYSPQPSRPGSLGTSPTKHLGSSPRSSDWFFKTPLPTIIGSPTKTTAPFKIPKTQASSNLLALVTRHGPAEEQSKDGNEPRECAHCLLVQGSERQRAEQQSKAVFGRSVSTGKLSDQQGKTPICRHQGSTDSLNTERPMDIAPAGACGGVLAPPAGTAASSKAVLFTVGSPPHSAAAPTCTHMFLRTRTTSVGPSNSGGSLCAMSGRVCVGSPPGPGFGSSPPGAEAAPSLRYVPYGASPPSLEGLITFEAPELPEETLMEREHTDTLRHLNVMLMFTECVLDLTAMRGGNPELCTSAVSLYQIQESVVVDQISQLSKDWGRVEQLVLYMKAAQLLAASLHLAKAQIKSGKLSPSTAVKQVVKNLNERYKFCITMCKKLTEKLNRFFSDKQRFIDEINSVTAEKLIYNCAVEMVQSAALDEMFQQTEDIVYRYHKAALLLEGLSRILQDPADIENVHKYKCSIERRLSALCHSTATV
# [4] = biological target: T3, Serine/threonine-protein kinase BRSK2 (Homo sapiens) (UniProt Q8IWQ3); assay: Inhibition of human BRSK2 at 1.82 nM by HotSpot assay relative to control
# T3 sequence (whole entry): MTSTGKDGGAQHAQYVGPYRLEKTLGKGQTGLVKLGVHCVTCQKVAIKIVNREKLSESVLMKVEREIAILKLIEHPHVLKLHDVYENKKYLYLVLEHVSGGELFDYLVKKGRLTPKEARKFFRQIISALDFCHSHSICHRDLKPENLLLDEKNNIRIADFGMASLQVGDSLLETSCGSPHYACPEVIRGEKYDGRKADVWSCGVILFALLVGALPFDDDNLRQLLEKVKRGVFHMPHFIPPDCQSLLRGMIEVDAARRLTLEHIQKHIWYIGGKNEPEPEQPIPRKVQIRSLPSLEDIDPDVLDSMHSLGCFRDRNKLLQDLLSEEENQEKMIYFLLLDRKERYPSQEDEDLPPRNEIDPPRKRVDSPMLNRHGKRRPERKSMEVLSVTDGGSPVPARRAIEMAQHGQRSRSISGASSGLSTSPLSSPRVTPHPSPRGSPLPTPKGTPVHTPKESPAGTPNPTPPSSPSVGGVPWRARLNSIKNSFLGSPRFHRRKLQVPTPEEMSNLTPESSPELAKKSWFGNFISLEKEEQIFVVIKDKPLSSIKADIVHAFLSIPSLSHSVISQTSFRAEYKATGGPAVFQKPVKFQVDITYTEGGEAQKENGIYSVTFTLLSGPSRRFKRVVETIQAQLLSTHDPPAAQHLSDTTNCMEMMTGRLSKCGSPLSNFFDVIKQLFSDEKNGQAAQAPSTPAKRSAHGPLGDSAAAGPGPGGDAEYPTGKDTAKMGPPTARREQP
# [5] = biological target: Tyrosine-protein kinase Fgr (Homo sapiens) (UniProt P09769); assay: Inhibition of human FGR at 1.82 nM by HotSpot assay relative to control
# [6] = biological target: BDNF/NT-3 growth factors receptor (Homo sapiens) (UniProt Q16620); assay: Inhibition of human TRKB at 1.82 nM by HotSpot assay relative to control
# [7] = biological target: T4, Serine/threonine-protein kinase Nek2 (Homo sapiens) (UniProt P51955); assay: Inhibition of human NEK2 at 1.82 nM by HotSpot assay relative to control
# T4 sequence (whole entry): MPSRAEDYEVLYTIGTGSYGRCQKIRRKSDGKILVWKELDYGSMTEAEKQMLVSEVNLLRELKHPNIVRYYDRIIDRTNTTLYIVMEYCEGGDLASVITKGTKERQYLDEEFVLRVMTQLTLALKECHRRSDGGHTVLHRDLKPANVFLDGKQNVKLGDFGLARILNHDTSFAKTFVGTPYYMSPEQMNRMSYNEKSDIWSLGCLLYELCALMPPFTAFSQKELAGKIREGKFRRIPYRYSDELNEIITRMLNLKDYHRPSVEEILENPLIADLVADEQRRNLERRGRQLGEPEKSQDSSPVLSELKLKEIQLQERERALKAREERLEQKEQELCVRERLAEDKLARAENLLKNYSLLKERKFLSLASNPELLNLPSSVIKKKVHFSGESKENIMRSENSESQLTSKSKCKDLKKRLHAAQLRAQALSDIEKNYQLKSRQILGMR
# Chain of Tyrosine-protein kinase FRK (Homo sapiens) (P42685 whole entry): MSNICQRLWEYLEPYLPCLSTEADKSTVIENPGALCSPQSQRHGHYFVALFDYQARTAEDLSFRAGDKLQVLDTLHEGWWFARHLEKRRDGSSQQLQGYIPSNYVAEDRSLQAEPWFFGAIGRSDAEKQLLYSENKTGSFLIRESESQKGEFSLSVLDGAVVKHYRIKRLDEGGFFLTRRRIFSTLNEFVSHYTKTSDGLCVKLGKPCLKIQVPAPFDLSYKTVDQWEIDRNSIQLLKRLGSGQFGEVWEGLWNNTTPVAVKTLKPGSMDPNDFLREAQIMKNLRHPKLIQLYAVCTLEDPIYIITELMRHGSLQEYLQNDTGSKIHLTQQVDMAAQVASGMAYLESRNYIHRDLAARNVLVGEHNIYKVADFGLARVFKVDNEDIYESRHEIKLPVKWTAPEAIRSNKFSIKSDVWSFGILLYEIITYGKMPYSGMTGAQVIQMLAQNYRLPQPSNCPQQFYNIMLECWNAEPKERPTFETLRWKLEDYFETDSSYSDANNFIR
# Chain of Tyrosine-protein kinase Fgr (Homo sapiens) (P09769 2-529 limits assumed): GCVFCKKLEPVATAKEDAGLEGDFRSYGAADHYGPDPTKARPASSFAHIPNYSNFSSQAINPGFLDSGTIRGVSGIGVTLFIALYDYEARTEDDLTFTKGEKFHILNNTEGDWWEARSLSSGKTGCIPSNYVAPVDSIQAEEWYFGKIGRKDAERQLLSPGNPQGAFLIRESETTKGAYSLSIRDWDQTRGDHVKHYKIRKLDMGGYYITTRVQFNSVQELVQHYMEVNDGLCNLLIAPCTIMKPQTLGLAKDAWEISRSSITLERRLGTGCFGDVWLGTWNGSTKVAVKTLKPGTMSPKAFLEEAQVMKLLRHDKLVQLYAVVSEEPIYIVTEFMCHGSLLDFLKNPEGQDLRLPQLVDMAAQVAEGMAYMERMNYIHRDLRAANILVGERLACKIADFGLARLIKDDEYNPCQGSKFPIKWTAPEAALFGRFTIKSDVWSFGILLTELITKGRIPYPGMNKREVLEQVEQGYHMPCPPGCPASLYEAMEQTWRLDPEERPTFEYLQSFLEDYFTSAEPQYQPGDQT
# Chain of BDNF/NT-3 growth factors receptor (Homo sapiens) (Q16620 32-822 limits assumed): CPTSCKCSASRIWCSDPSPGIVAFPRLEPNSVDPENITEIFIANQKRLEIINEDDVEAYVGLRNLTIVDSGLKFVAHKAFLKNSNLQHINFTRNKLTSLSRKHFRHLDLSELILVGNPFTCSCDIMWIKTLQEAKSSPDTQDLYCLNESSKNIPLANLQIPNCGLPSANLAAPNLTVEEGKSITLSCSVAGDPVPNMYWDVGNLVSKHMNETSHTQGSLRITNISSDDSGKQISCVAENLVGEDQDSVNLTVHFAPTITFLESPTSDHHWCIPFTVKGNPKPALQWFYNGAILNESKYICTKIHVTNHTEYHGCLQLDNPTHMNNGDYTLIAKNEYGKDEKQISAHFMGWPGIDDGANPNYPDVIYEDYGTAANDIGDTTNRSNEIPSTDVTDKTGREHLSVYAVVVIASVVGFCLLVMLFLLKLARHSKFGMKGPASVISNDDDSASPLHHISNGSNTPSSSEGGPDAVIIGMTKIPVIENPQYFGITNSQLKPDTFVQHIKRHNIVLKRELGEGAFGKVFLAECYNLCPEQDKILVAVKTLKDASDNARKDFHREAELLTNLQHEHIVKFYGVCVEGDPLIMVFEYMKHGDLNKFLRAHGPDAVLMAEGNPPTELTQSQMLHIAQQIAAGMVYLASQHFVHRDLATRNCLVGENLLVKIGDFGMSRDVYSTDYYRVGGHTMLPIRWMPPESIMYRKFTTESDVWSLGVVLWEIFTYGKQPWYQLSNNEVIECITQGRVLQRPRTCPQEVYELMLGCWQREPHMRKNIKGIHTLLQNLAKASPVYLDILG
Compound,inhibition [1] [%],inhibition [2] [%],inhibition [3] [%],inhibition [4] [%],inhibition [5] [%],inhibition [6] [%],inhibition [7] [%]
C[C@]1(O)C[C@@H](c2nc(-c3ccc4ccc(-c5ccccc5)nc4c3)c3c(N)nccn32)C1,-0.1,-1.35,–,–,–,–,–
C[C@@]1(C(=O)Nc2ccc(F)nc2)CCCN1c1nc(Nc2cc(C3CC3)n[nH]2)c2cccn2n1,–,–,-7.91,-3.06,-3.39,69.6,0.74

# — ChEMBL document CHEMBL5653615 (J Biol Chem, 2013)
